{
  "source": "the kinase profiling compilation of Christmann-Franck et al. (2016)",
  "experiment_in_all_cases": "TR FRET",
  "conditions_in_all_cases": "compound 0.01 µM",
  "key": {"[1]": {"target": "NTRK1 (human) (UniProt P04629)"}, "[2]": {"system": "CPK1 (P.falciparum)"}, "[3]": {"target": "CSF1R (human) (UniProt P07333)"}, "[4]": {"target": "TIE1 (human) (UniProt P35590)"}, "[5]": {"target": "NTRK3 (human) (UniProt Q16288)"}, "[6]": {"target": "EPHA4 (human) (UniProt P54764)"}, "[7]": {"target": "MAP3K2 (human) (UniProt Q9Y2U5)"}, "[8]": {"target": "KIT (human) (UniProt P10721)"}, "[9]": {"target": "TNK1 (human) (UniProt Q13470)"}, "[10]": {"system": "BRAF (human), P15056 [V600E]"}, "[11]": {"target": "YES1 (human) (UniProt P07947)"}, "[12]": {"target": "LCK (human) (UniProt P06239)", "sequence (P06239 whole entry, looked up)": "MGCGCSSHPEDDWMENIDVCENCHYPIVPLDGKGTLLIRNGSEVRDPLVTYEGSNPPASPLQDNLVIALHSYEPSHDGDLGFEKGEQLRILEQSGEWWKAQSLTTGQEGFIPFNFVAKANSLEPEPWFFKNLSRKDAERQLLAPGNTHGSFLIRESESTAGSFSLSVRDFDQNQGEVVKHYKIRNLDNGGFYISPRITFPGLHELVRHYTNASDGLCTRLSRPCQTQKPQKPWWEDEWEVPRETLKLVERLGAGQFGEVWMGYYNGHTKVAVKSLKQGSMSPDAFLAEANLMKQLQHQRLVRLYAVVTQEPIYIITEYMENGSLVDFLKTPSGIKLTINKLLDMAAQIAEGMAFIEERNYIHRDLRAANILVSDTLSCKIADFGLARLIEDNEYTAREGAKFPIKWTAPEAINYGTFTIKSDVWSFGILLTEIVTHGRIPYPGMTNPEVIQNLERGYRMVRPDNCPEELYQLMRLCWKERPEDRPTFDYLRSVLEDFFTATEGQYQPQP"}, "[13]": {"target": "BMX (human) (UniProt P51813)"}, "[14]": {"target": "PDGFRA (human) (UniProt P16234)"}, "[15]": {"target": "MLTK (human) (UniProt Q9NYL2)", "sequence (Q9NYL2 whole entry, looked up)": "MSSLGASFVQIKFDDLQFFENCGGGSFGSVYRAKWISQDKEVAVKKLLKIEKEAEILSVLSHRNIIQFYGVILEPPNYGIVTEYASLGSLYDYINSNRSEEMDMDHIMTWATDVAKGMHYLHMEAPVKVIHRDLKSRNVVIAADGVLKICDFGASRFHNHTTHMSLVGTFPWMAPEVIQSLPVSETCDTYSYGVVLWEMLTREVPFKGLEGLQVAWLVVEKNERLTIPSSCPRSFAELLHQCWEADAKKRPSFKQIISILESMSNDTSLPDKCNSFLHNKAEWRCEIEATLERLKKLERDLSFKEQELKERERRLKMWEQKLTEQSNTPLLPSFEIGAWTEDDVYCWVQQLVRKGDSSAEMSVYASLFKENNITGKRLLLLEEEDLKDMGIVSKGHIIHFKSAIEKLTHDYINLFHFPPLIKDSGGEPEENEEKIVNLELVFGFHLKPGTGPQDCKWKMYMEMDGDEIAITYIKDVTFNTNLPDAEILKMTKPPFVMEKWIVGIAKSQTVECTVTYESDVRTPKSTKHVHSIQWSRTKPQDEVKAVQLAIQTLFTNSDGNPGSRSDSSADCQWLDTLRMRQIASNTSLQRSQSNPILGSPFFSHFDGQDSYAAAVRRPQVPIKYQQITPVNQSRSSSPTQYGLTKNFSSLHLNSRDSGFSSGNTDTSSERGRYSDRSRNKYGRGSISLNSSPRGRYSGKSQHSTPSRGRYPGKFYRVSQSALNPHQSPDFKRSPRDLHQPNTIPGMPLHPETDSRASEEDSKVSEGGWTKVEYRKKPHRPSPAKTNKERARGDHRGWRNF"}, "[16]": {"target": "CHUK (human) (UniProt O15111)"}, "[17]": {"target": "BLK (human) (UniProt P51451)"}, "[18]": {"target": "SGK3 (human) (UniProt Q96BR1)"}, "[19]": {"target": "TEK (human) (UniProt Q02763)"}, "[20]": {"target": "BRAF (human) (UniProt P15056)", "sequence (P15056 whole entry, looked up)": "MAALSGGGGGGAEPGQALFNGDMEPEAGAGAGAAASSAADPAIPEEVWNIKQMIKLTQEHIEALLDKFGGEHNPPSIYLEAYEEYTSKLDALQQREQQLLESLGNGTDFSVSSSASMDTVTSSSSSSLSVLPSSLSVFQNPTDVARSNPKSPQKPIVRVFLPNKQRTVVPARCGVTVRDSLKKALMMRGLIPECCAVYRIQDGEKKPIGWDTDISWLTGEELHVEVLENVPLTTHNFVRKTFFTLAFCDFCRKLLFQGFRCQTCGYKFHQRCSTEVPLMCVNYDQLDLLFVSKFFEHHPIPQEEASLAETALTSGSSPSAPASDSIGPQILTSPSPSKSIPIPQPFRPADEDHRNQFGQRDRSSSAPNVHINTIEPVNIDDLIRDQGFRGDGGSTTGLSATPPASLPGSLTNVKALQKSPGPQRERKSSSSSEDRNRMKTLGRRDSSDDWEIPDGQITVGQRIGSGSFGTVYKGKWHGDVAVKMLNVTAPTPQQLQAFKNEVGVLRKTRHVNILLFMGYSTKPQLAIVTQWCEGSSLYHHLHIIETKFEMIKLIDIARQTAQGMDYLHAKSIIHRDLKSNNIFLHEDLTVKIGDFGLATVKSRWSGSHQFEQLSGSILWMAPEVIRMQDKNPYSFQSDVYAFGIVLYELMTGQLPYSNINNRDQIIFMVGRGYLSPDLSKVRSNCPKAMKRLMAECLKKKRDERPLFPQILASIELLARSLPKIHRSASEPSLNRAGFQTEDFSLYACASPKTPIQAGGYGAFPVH"}, "[21]": {"target": "MAPK14 (human) (UniProt Q16539)", "sequence (Q16539 whole entry, looked up)": "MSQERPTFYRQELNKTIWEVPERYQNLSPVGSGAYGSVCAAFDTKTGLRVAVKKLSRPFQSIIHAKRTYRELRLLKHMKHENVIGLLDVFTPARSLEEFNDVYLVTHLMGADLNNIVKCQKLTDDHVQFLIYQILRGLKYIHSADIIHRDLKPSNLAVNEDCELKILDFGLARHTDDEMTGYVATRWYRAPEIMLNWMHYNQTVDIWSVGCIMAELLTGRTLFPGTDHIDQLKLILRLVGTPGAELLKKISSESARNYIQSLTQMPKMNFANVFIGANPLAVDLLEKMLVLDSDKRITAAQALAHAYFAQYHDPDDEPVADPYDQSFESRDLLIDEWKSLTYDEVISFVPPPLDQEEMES"}, "[22]": {"target": "LYN (human) (UniProt P07948)"}, "[23]": {"target": "ANKK1 (human) (UniProt Q8NFD2)"}, "[24]": {"target": "IKBKB (human) (UniProt O14920)"}, "[25]": {"system": "FLT3 (human), P36888 [K663Q]"}, "[26]": {"target": "MUSK (human) (UniProt O15146)"}, "[27]": {"target": "FGFR1 (human) (UniProt P11362)", "sequence (P11362 whole entry, looked up)": "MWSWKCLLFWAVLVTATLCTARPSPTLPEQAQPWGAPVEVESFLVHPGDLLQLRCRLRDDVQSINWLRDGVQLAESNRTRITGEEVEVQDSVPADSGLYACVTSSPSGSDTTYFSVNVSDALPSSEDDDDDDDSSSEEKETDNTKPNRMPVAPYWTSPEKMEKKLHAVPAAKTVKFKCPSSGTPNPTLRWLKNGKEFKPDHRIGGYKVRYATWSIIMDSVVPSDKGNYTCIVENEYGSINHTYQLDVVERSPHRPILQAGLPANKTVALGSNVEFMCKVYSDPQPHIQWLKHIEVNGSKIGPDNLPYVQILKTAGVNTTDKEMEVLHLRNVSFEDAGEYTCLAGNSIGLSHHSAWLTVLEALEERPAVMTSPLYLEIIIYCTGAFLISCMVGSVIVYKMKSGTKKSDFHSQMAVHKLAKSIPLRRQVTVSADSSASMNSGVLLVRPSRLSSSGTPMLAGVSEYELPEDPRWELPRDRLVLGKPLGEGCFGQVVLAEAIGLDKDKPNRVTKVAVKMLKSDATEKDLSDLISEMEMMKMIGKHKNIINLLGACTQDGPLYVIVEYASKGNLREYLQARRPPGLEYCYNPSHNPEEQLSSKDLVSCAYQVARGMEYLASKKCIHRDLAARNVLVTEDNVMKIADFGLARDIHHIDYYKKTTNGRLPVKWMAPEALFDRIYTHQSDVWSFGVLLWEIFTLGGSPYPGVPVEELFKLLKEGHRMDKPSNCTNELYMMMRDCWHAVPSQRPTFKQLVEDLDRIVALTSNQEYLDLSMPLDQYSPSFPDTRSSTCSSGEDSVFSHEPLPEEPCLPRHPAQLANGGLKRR"}, "[28]": {"system": "RET (human), P07949 [V804M]"}, "[29]": {"system": "FLT3 (human), P36888 [N841I]"}, "[30]": {"target": "JAK3 JH1 catalytic (human) (UniProt P52333)"}, "[31]": {"target": "MAP4K2 (human) (UniProt Q12851)", "sequence (Q12851 whole entry, looked up)": "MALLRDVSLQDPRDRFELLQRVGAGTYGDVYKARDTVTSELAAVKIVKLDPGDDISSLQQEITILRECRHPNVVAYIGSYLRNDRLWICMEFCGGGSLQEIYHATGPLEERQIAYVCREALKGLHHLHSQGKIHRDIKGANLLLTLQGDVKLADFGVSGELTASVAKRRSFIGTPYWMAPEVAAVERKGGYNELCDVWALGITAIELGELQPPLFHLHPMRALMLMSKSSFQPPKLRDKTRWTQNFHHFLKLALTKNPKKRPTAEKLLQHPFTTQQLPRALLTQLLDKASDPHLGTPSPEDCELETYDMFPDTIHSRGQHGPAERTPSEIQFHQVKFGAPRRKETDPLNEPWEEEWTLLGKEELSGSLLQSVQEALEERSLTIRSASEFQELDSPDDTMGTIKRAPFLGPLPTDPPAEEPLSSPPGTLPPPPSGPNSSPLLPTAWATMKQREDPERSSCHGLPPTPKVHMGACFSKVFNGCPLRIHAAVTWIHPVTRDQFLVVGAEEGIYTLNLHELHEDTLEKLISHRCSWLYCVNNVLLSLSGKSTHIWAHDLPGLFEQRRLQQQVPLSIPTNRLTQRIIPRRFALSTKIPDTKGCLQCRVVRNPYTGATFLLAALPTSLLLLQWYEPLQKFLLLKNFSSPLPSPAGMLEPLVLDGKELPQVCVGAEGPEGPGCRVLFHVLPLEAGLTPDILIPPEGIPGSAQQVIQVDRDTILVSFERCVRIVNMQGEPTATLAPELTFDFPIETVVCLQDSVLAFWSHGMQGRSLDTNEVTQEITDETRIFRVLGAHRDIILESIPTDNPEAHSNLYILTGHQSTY"}, "[32]": {"target": "HCK (human) (UniProt P08631)"}, "[33]": {"system": "FLT3 (human), P36888 [D835Y]"}, "[34]": {"system": "FLT3 (human), P36888 [D835H]"}, "[35]": {"target": "SRC (human) (UniProt P12931)"}, "[36]": {"system": "KIT (human), P10721 [V559D/T670I]", "sequence (P10721 whole entry V559D/T670I, looked up)": "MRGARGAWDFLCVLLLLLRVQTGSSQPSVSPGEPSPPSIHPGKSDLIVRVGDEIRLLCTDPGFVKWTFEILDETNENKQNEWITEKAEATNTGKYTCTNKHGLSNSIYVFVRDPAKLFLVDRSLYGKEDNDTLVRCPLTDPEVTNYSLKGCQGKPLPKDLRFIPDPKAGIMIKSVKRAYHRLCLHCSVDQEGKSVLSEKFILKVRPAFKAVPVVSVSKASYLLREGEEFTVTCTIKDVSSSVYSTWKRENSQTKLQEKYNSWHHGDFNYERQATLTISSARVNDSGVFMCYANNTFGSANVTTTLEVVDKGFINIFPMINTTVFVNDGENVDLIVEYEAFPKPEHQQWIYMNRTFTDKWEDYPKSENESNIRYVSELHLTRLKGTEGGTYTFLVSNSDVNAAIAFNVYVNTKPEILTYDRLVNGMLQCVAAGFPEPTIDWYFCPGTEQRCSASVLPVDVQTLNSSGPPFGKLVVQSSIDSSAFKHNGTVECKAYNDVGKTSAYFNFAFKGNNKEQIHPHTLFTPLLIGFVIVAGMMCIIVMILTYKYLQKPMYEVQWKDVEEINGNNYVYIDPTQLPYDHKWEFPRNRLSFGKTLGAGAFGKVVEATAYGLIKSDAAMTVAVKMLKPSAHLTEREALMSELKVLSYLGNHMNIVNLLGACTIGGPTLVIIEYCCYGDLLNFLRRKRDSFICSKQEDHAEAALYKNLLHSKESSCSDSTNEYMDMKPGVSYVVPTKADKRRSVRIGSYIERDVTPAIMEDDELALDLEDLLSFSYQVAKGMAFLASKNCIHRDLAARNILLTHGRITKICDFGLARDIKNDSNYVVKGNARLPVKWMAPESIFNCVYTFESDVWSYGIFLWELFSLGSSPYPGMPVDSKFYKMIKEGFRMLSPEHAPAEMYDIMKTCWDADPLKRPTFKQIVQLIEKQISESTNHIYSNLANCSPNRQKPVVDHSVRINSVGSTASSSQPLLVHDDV"}, "[37]": {"target": "TNIK (human) (UniProt Q9UKE5)"}, "[38]": {"target": "RET (human) (UniProt P07949)"}, "[39]": {"target": "STK10 (human) (UniProt O94804)"}, "[40]": {"target": "EPHA3 (human) (UniProt P29320)"}, "[41]": {"target": "NTRK2 (human) (UniProt Q16620)"}, "[42]": {"target": "FLT3 (human) (UniProt P36888)"}, "[43]": {"system": "RET (human), P07949 [M918T]"}, "[44]": {"target": "MAP3K7 (human) (UniProt O43318)"}, "[45]": {"system": "KIT (human), P10721 [L576P]"}, "[46]": {"system": "KIT (human), P10721 [V559D]"}, "[47]": {"system": "FLT3 (human), P36888 [R834Q]"}, "[48]": {"target": "MAP4K1 (human) (UniProt Q92918)"}, "[49]": {"target": "EPHA8 (human) (UniProt P29322)"}, "[50]": {"target": "TAOK3 (human) (UniProt Q9H2K8)"}, "[51]": {"target": "MAP2K5 (human) (UniProt Q13163)"}, "[52]": {"target": "FGR (human) (UniProt P09769)"}, "[53]": {"target": "MAP3K3 (human) (UniProt Q99759)"}, "[54]": {"system": "EIF2AK4 KD2 (human), Q9P2K8 [S808G]"}, "[55]": {"target": "DDR2 (human) (UniProt Q16832)"}, "[56]": {"target": "ULK1 (human) (UniProt O75385)"}, "[57]": {"target": "PDGFRB (human) (UniProt P09619)"}, "[58]": {"target": "CSK (human) (UniProt P41240)"}, "[59]": {"target": "DDR1 (human) (UniProt Q08345)"}},
  "data": [
    {"molecule": "Cc1ccc(C(=O)Nc2ccc(CN3CCN(C)CC3)c(C(F)(F)F)c2)cc1C#Cc1cnc2[nH]ncc2c1", "values": [
      {"measurement": "inhibition", "setting": "[1]", "value": 100, "unit": "%"},
      {"measurement": "inhibition", "setting": "[2]", "value": 79, "unit": "%"},
      {"measurement": "inhibition", "setting": "[3]", "value": 97.8, "unit": "%"},
      {"measurement": "inhibition", "setting": "[4]", "value": 82, "unit": "%"},
      {"measurement": "inhibition", "setting": "[5]", "value": 82, "unit": "%"},
      {"measurement": "inhibition", "setting": "[6]", "value": 52, "unit": "%"},
      {"measurement": "inhibition", "setting": "[7]", "value": 63, "unit": "%"},
      {"measurement": "inhibition", "setting": "[8]", "value": 97.2, "unit": "%"},
      {"measurement": "inhibition", "setting": "[9]", "value": 83, "unit": "%"},
      {"measurement": "inhibition", "setting": "[10]", "value": 93.6, "unit": "%"},
      {"measurement": "inhibition", "setting": "[11]", "value": 70, "unit": "%"},
      {"measurement": "inhibition", "setting": "[12]", "value": 96.8, "unit": "%"},
      {"measurement": "inhibition", "setting": "[13]", "value": 51, "unit": "%"},
      {"measurement": "inhibition", "setting": "[14]", "value": 76, "unit": "%"},
      {"measurement": "inhibition", "setting": "[15]", "value": 96.2, "unit": "%"},
      {"measurement": "inhibition", "setting": "[16]", "value": 86, "unit": "%"},
      {"measurement": "inhibition", "setting": "[17]", "value": 97.6, "unit": "%"},
      {"measurement": "inhibition", "setting": "[18]", "value": 52, "unit": "%"},
      {"measurement": "inhibition", "setting": "[19]", "value": 97.2, "unit": "%"},
      {"measurement": "inhibition", "setting": "[20]", "value": 78, "unit": "%"},
      {"measurement": "inhibition", "setting": "[21]", "value": 59, "unit": "%"},
      {"measurement": "inhibition", "setting": "[22]", "value": 83, "unit": "%"},
      {"measurement": "inhibition", "setting": "[23]", "value": 55, "unit": "%"},
      {"measurement": "inhibition", "setting": "[24]", "value": 90, "unit": "%"},
      {"measurement": "inhibition", "setting": "[25]", "value": 95, "unit": "%"},
      {"measurement": "inhibition", "setting": "[26]", "value": 78, "unit": "%"},
      {"measurement": "inhibition", "setting": "[27]", "value": 84, "unit": "%"},
      {"measurement": "inhibition", "setting": "[28]", "value": 65, "unit": "%"},
      {"measurement": "inhibition", "setting": "[29]", "value": 97.1, "unit": "%"},
      {"measurement": "inhibition", "setting": "[30]", "value": 67, "unit": "%"},
      {"measurement": "inhibition", "setting": "[31]", "value": 86, "unit": "%"},
      {"measurement": "inhibition", "setting": "[32]", "value": 95.8, "unit": "%"},
      {"measurement": "inhibition", "setting": "[33]", "value": 58, "unit": "%"},
      {"measurement": "inhibition", "setting": "[34]", "value": 82, "unit": "%"},
      {"measurement": "inhibition", "setting": "[35]", "value": 76, "unit": "%"},
      {"measurement": "inhibition", "setting": "[36]", "value": 91.9, "unit": "%"},
      {"measurement": "inhibition", "setting": "[37]", "value": 81, "unit": "%"},
      {"measurement": "inhibition", "setting": "[38]", "value": 85, "unit": "%"},
      {"measurement": "inhibition", "setting": "[39]", "value": 99.8, "unit": "%"},
      {"measurement": "inhibition", "setting": "[40]", "value": 89, "unit": "%"},
      {"measurement": "inhibition", "setting": "[41]", "value": 86, "unit": "%"},
      {"measurement": "inhibition", "setting": "[42]", "value": 97.6, "unit": "%"},
      {"measurement": "inhibition", "setting": "[43]", "value": 90.6, "unit": "%"},
      {"measurement": "inhibition", "setting": "[44]", "value": 96.2, "unit": "%"},
      {"measurement": "inhibition", "setting": "[45]", "value": 97.8, "unit": "%"},
      {"measurement": "inhibition", "setting": "[46]", "value": 98.6, "unit": "%"},
      {"measurement": "inhibition", "setting": "[47]", "value": 77, "unit": "%"},
      {"measurement": "inhibition", "setting": "[48]", "value": 59, "unit": "%"},
      {"measurement": "inhibition", "setting": "[49]", "value": 89, "unit": "%"},
      {"measurement": "inhibition", "setting": "[50]", "value": 92.1, "unit": "%"},
      {"measurement": "inhibition", "setting": "[51]", "value": 94.8, "unit": "%"},
      {"measurement": "inhibition", "setting": "[52]", "value": 81, "unit": "%"},
      {"measurement": "inhibition", "setting": "[53]", "value": 90, "unit": "%"},
      {"measurement": "inhibition", "setting": "[54]", "value": 54, "unit": "%"},
      {"measurement": "inhibition", "setting": "[55]", "value": 64, "unit": "%"},
      {"measurement": "inhibition", "setting": "[56]", "value": 51, "unit": "%"},
      {"measurement": "inhibition", "setting": "[57]", "value": 90.5, "unit": "%"},
      {"measurement": "inhibition", "setting": "[58]", "value": 97.8, "unit": "%"},
      {"measurement": "inhibition", "setting": "[59]", "value": 99.8, "unit": "%"}
    ]}
  ]
}
